Literature values, collected in paper PMC8330515 (Bioorganic & medicinal chemistry letters, 2020).

System: normal prostate epithelial cells
Conditions: read-out: 24 h IC50 in normal prostate epithelial cells

In the case of CCN(CC)C(=S)SCc1ccc(NC(=O)CC[C@H](N)C(=O)O)cc1 [GGTDTC], the IC50 is given as greater than 15 µM.
